Reference: ChEMBL document CHEMBL5724803, “Viability screening in matched tumor and normal assay results for EUbOPEN Chemogenomics Library” (2024)
Square brackets hold non-standard residues; d marks the D form. Peptide text beside a SMILES is read from it. Arg(Me) = CNC(=N)NCCC[C@H](N)C(=O)O; d3Pal = N[C@H](Cc1cccnc1)C(=O)O; d4Pal = N[C@H](Cc1ccncc1)C(=O)O; azaGly = NNC(=O)O

These compounds were tested on Colon organoid.
Assay type: functional, Homo sapiens
For `Cc1cc(NC(=O)c2cccc(S(F)(F)(F)(F)F)c2)cc(-n2ccn3nc(-c4cccnc4)cc23)c1` [BAY-309], the “Cell Viability Ratio” value was 1.076.
For `O=C(N1CCS(=O)(=O)CC1)N1C[C@H](c2ccc(OC(F)(F)F)cc2)C[C@H](c2nc(C3CC3)no2)C1` [BAY-386], the “Cell Viability Ratio” value was 0.9974.
For `O[C@]1(C(F)(F)F)CCCC[C@H]1Nc1ccc(F)cc1` [BAY-390], the “Cell Viability Ratio” value was 0.968.
In the case of `Cc1c(N2CCNCC2)nc2ccc(Br)cc2c1C(=O)NC[C@H](CCC(=O)O)c1ccccc1Cl` [BAY-403], the “Cell Viability Ratio” value is reported as 0.887.
For `CN(C)c1ncnc(-c2ccc3nc(Nc4cc(CN5CCN(C(=O)CC(F)(F)F)CC5)ccn4)[nH]c3c2)c1Cl` [BAY-440], the “Cell Viability Ratio” value was 0.922.
In the case of `Cc1noc([C@H]2C[C@@H](c3ccc(C(F)(F)F)cc3)CN(C(=O)N3CCS(=O)(=O)C3)C2)n1` [BAY-448], the “Cell Viability Ratio” value is reported as 0.9504.
For `CC1=C(C#N)C(c2ccc3[nH]nc(C)c3c2)C(C#N)=C(C)N1` [BAY-474], the “Cell Viability Ratio” value was 0.9495.
With `Cc1c(NC(=O)c2cc(C(N)=O)nc3cc(F)ccc23)c(C(F)(F)F)nn1Cc1ccc(C(C)(C)C)cc1` [BAY-588] the “Cell Viability Ratio” value was 1.099.
With `O=C(O)[C@@H]1[C@@H](Cn2nnc3ccccc3c2=O)CC[C@H]1C(=O)c1ccc(OCCC2CCOCC2)cc1` [BAY-694] the “Cell Viability Ratio” value was 1.051.
With `O=C(NCc1ncc(C(F)(F)F)cc1Cl)c1ccc2c(c1)C1(CCS(=O)(=O)CC1)[C@H](C1CC1)N2S(=O)(=O)c1ccc(F)cc1` [BAY-784] the “Cell Viability Ratio” value was 0.9106.
`O=C(NCc1ncc(C(F)(F)F)cc1Cl)c1ccc2c(c1)C1(CCS(=O)(=O)CC1)[C@@H](C1CC1)N2S(=O)(=O)c1ccc(F)cc1` [BAY-786] was tested, and the “Cell Viability Ratio” value was 1.0741.
With `Cc1c(NC(=O)c2cc(C(N)=O)nc3cc(F)ccc23)c(C(F)(F)F)nn1Cc1ccc(C#N)cc1` [BAY-876] the “Cell Viability Ratio” value was 1.117.
For `CN1CCN(c2cnc3c(C4CCN(C(=O)c5ccc(OC(F)(F)F)cc5N)CC4)ncnc3c2)CC1` [BAY-885], the “Cell Viability Ratio” value was 0.9479.
With `O=C(Nc1cnc(Oc2ccc(F)cc2)nc1)N1CCc2ncccc2[C@@H]1c1ccc(F)cc1` [BAY-899] the “Cell Viability Ratio” value was 1.086.
With `CC1=C(C#N)C(c2ccc3c(c2)c(NC(=O)c2ccccc2C)nn3C)C(C#N)=C(C)N1` [BAY-974] the “Cell Viability Ratio” value was 1.012.
With `C[C@H](c1ccnc(Nc2nc3ccc(-c4cc(N(C)C)ncn4)cc3[nH]2)c1)N1CCN(C(=O)CC(F)(F)F)CC1` [BAY-985] the “Cell Viability Ratio” value was 0.822.
With `Cn1cc(Cl)c2c(Oc3c(F)cc(Nc4cc(Cl)nc(N)n4)cc3F)ccnc21` [BAY-4900] the “Cell Viability Ratio” value was 1.21.
For `Cc1c(N2CCCC2)nc2ccc(Br)cc2c1C(=O)NC[C@H](CCC(=O)O)c1ccccc1Cl` [BAY-6672], the “Cell Viability Ratio” value was 0.9418.
With `O=C(O)[C@H]1[C@H](Cn2nnc3ccccc3c2=O)CC[C@@H]1C(=O)c1ccc(OCCC2CCOCC2)cc1` [BAY-7598] the “Cell Viability Ratio” value was 1.026.
For `COc1cc(N[C@@H]2CCCC[C@]2(O)C(F)(F)F)ccc1F` [BAY-9897], the “Cell Viability Ratio” value was 0.9982.
For `CC(=O)N1CCC(c2ccc(C(=O)NC3=NCCN3)cc2C(F)(F)F)CC1` [BI 0054], the “Cell Viability Ratio” value was 1.041.
In the case of `CN(C)C(=O)Cn1cc(-c2nc(C3(c4ccc(-c5cnc(N)nc5)cc4)CC3)no2)cn1` [BI 0153], the “Cell Viability Ratio” value is reported as 0.9292.
In the case of `COc1ccc2c(O[C@@H]3C[C@H]4C(=O)N[C@]5(C(=O)O)CC5/C=C\CCCCC[C@H](NC(=O)OC5CCCC5)C(=O)N4C3)cc(-c3csc(NC(=O)C(C)C)n3)nc2c1C` (some centres not stated) [BI 1230], the “Cell Viability Ratio” value is reported as 0.9938.
In the case of `O=C(N[C@H]1CCCCC/C=C\C2C[C@@]2(C(=O)O)NC(=O)[C@@H]2C[C@@H](Oc3ccncc3)CN2C1=O)OC1CCCC1` (some centres not stated) [BI 1675], the “Cell Viability Ratio” value is reported as 1.111.
`CCOCCn1cc(C(=O)Nc2ccc(-n3nc(-c4cccnc4)cc3C(F)(F)F)cn2)ccc1=O` [BI 1935] was tested, and the “Cell Viability Ratio” value was 0.9955.
With `C[C@H](NC(=O)c1cnc2n1[C@](C)(Cc1ccc(C#N)cc1)C(=O)N2c1cc(Cl)c(F)c(Cl)c1)C(=O)NC1(c2ccccn2)CC1` [BI 1950] the “Cell Viability Ratio” value was 0.9219.
With `O=C(Nc1ccc(-n2nc(-c3cccnc3)cc2C(F)(F)F)cn1)c1ccc(-c2ccccc2)c(F)c1` [BI 2049] the “Cell Viability Ratio” value was 1.116.
For `CCS(=O)(=O)c1cc2cc(C[C@@](O)(CC(C)(C)c3ccc(F)cc3C(N)=O)C(F)(F)F)[nH]c2cn1` [BI 3047], the “Cell Viability Ratio” value was 1.1136.
For `CCOC(=O)c1cc2cc(-c3cc(C(=O)NCc4ccc(C(=O)O)cc4)nn3C)ccc2[nH]1` [BI 4394], the “Cell Viability Ratio” value was 0.9253.
For `Cn1nc(C(=O)NCc2ccc(C(=O)O)cc2)cc1-c1ccc2[nH]ccc2c1` [BI 4395], the “Cell Viability Ratio” value was 1.056.
`CS(=O)(=O)NCC[C@H](NC(=O)c1cncc2c1cnn2-c1ccc(F)cc1)c1ccnc(S(C)(=O)=O)c1` [BI 9307] was tested, and the “Cell Viability Ratio” value was 1.198.
With `C[C@@]1(Cc2ccc(C#N)cc2)C(=O)N(c2cc(Cl)cc(Cl)c2)c2ncc(C(=O)NC3(c4nc(C5CCC5)no4)CC3)n21` [BI 9446] the “Cell Viability Ratio” value was 1.099.
With `CC(=O)N1CCC(c2ccc(C(=O)NC(=N)N)cc2C(F)(F)F)CC1` [BI 9627] the “Cell Viability Ratio” value was 0.903.
`CCC(=O)N[C@H]1CC[C@@H](C(=O)N(C)c2ccc(-c3nc4ccccc4o3)cc2)C1` [BI 99179] was tested, and the “Cell Viability Ratio” value was 0.6872.
`CCC(=O)N[C@@H]1CC[C@H](C(=O)N(C)c2ccc(-c3nc4ccccc4o3)cc2)C1` [BI 99990] was tested, and the “Cell Viability Ratio” value was 1.309.
With `CS(=O)(=O)c1cc(C2(NC(=O)c3cncc4c3cnn4-c3ccc(F)cc3)CC2)ccn1` [BI 639667] the “Cell Viability Ratio” value was 0.9024.
`CCS(=O)(=O)c1cc2cc(C[C@](O)(CC(C)(C)c3ccc(F)cc3C(N)=O)C(F)(F)F)[nH]c2cn1` [BI 653048] was tested, and the “Cell Viability Ratio” value was 0.9178.
`O=c1nc(-c2ccccn2)sc2ccccc12` [BTZO-1] was tested, and the “Cell Viability Ratio” value was 0.8779.
`O=C1NC(c2ccccn2)Sc2ccccc21` (configuration not stated) [BTZO-4] was tested, and the “Cell Viability Ratio” value was 1.041.
With `CN1CCN(Cc2ccc(Nc3ncc(Cl)c(Nc4ccccc4S(=O)(=O)N(C)C)n3)cc2)CC1` [DUBERMATINIB] the “Cell Viability Ratio” value was 0.1542.
In the case of `C[C@H](NC(=O)Nc1cc2[nH]ncc2c(CO)n1)c1ccccn1` [ERKi-NC], the “Cell Viability Ratio” value is reported as 1.034.
For `CN(C(=O)c1ccccc1)c1cc(N(C)c2ccc3c(c2)CCc2ccc(C(=O)NCCN4CCOCC4)cc2C3=O)ccc1F` [FM-743], the “Cell Viability Ratio” value was 0.9975.
In the case of `O=C(NCCN1CCOCC1)c1ccc2c(c1)C(=O)c1ccc(Nc3ccc(F)c(NC(=O)c4ccccc4)c3)cc1CC2` [FS-694], the “Cell Viability Ratio” value is reported as 0.8259.
`CC(C)(C)OC(=O)N1CCCC1CNC1CCC(c2cc(F)ccc2F)(S(=O)(=O)c2ccc(Cl)cc2)CC1` (configuration not stated) [GSI-NC] was tested, and the “Cell Viability Ratio” value was 0.9423.
With `CC(=O)Nc1c(F)cc(C(=O)N[C@H]2CC[C@H](O)CC2)cc1O[C@@H](C)c1ccccc1` [GSK046] the “Cell Viability Ratio” value was 0.8182.
With `CNC(=O)c1cc(C(=O)NC2CC2)cn(Cc2ccccc2)c1=O` [GSK620] the “Cell Viability Ratio” value was 0.8825.
For `O=C(O)c1ccc(-c2c[nH]c3ncc(-c4ccccc4)cc23)cc1C1CCCC1` [GSK-650394], the “Cell Viability Ratio” value was 1.062.
`Cc1c(Oc2ccc(F)cc2)c(OC(C)C)nn1-c1ccc(C2CC2)cn1` [IPP/CNRS-A019] was tested, and the “Cell Viability Ratio” value was 1.225.
For `CNC(=N)NCCC[C@H](NC(=O)[C@H](CC(C)C)NC(=O)NNC(=O)[C@H](Cc1ccccc1)NC(=O)[C@H](CO)NC(=O)[C@H](CC(N)=O)NC(=O)[C@@H](Cc1ccncc1)NC(=O)[C@H](N)Cc1ccc(O)cc1)C(=O)N[C@@H](Cc1ccccc1)C(N)=O` [KISS1-305] (H-[dY][d4Pal]NSF[azaGly]L[Arg(Me)]F-NH2), the “Cell Viability Ratio” value was 1.123.
For `CNC(=N)NCCC[C@H](NC(=O)[C@H](CC(C)C)NC(=O)NNC(=O)[C@H](Cc1ccccc1)NC(=O)[C@H](CO)NC(=O)[C@H](CC(N)=O)NC(=O)[C@@H](Cc1cccnc1)NC(=O)[C@H](N)Cc1ccc(O)cc1)C(=O)NCC(N)=O` [KISS1-543] (H-[dY][d3Pal]NSF[azaGly]L[Arg(Me)]G-NH2), the “Cell Viability Ratio” value was 1.03.
In the case of `C[C@@H]1CN(c2cc(-c3nn(C)c4ccc(OC5(C)CC5)cc34)ncn2)C[C@H](C)O1` [MLi-2-NC], the “Cell Viability Ratio” value is reported as 1.036.
`CC(=O)c1c(NS(C)(=O)=O)c2cc(-c3ccc(Cl)cc3)c(-c3ccc(Cl)cc3Cl)nc2n(C)c1=O` [MRL-CB1-NC] was tested, and the “Cell Viability Ratio” value was 1.02.
With `Cc1ccc(-c2cnc([C@@]3(O)CC[C@H](C(=O)O)C(C)(C)C3)s2)cc1Nc1cccc(C(F)(F)F)n1` [MRL-SYKi-NC] the “Cell Viability Ratio” value was 1.002.
In the case of `Cc1cc(Nc2nccc(C)n2)cc(-c2cnc([C@@]3(O)CC[C@H](C(=O)O)C(C)(C)C3)s2)c1` [MRL-SYKi], the “Cell Viability Ratio” value is reported as 0.8949.
With `FC(F)(F)c1ccc2c(c1)nc(-c1cccnc1)n2C1CC1` [MSD-CYP11B2-Negative-control] the “Cell Viability Ratio” value was 1.22.
For `CC(C)(O)c1cncc(-c2nc3ccc(F)cc3n2C2CC2)c1` [MSD-CYP11B2], the “Cell Viability Ratio” value was 0.9895.
In the case of `N#CC1(c2ccccn2)CCN(Cc2cc(C(=O)N3CCCC3)c(=O)n3ccccc23)CC1` [MSD-M1PAM-NC], the “Cell Viability Ratio” value is reported as 1.068.
`CO[C@@H](C)c1c(Nc2ccc([C@@H](N(C)C(=O)C3CCS(=O)(=O)CC3)C(F)(F)F)cc2)cnc2cc(Cl)nn12` [NVS-MALT1-C] was tested, and the “Cell Viability Ratio” value was 1.209.
`CO[C@@H](C)c1c(Nc2ccc([C@H](N(C)C(=O)C3CCS(=O)(=O)CC3)C(F)(F)F)cc2)cnc2cc(Cl)nn12` [NVS-MALT1] was tested, and the “Cell Viability Ratio” value was 0.853.
In the case of `Nc1nc(NCc2ccccc2)nc(-c2ccccc2CO)n1` [Ogerin], the “Cell Viability Ratio” value is reported as 1.099.
In the case of `CN(c1ccnc(CNc2nc(Nc3ccc4c(c3)CC(=O)N4)ncc2C(F)(F)F)n1)S(C)(=O)=O` [PF-00911705], the “Cell Viability Ratio” value is reported as 1.1264.
For `CC(=O)NCC(=O)N1[C@@H]2CC[C@H]1c1ccc(Nc3ncc(C(F)(F)F)c(NC4CCC4)n3)cc12` [PF-03814735], the “Cell Viability Ratio” value was 0.4683.
In the case of `COc1ccc2cc(OCC3(C(=O)O)CN(C(=O)c4ccc(F)cc4)C3)ccc2c1` [PF-04418948], the “Cell Viability Ratio” value is reported as 1.076.
For `O=C(c1ccc(F)cc1)N1CC(COc2ccc(Br)cc2)(C(=O)O)C1` [PF-04475866], the “Cell Viability Ratio” value was 0.9754.
`C[C@H](c1ccc(F)cc1)N(Cc1ccc(Cl)c(C(=O)O)c1)C(=O)c1cnc2ccccc2c1` [PF-05257137] was tested, and the “Cell Viability Ratio” value was 1.055.
In the case of `Cn1cnc2c(F)c(Nc3ccc(Br)cc3Cl)c(C(=O)NOCCO)cc21` [SELUMETINIB], the “Cell Viability Ratio” value is reported as 1.4315.
In the case of `O=C1c2ccc(Nc3ccc(F)cc3F)cc2CCc2ccc(OC[C@H](O)CO)cc21` [Skepinone-L], the “Cell Viability Ratio” value is reported as 1.035.
